US20110294861A1, “METHOD OF TREATMENT OF HEREDITARY HEMOCHROMATOSIS” (NOVARTIS AG, priority 2006, published 2011)

Tests used:
HJV−/− mice = assay: Iron overload in a murine model of juvenile hemochromatosis (organ iron by ICP-OES); type: in vivo
Procedure: Compound I, a novel tridentate oral iron chelator, is effective in the treatment of patients with transfusional iron overload and it has not been investigated in primary iron overload. We sought to examine spontaneous iron loading and the effect of Compound I upon the removal of iron in HJV−/− mice with iron overload.
Methods: Inductively-Coupled Plasma Optical Emission Spectrometry (ICP-OES, measurement of elemental iron) determinations in liver, heart, spleen and pancreas were performed at week 8 (study start), 14, 20 and 28 in HJV−/− and wild type (wt) mice (n=6-8), subsequent to MRI measurements in heart and liver. Starting at week 20 three groups of HJV−/− animals received daily 0 (vehicle), 30 or 100 mg/kg Compound I, control wt-mice remained untreated. Iron loading was observed up to 28 weeks (including vehicle group) and the effects of Compound I were assessed by comparing the 28-week groups. MRI R2* measurements were performed using a 4.7T MR imager. For the myocardial and hepatic R2* assessments single slice, ECG gated gradient echo images and single slice transversal gradient echo images were acquired, respectively.

[1] = Plasma half life within the human body; type: in vivo
[2] = Exposure of Compound I in mice compared with human studies; type: in vivo; settings: mice versus human studies
[3] = in vivo; cited from earlier work
[4] = subcutaneous, 3 patients with HH; compared with weekly phlebotomy, e.g. 500 ml; cited from earlier work
[5] = 100 mg/kg daily, week 20 to 28, HJV−/− mice, ICP-OES
[6] = hemojuvelin knock out mouse, within 8 weeks of treatment (conclusion)

Structure (SMILES) | effects on organ iron load (HJV−/− mice; 30 mg/kg daily, HJV−/− mice) | effects on organ iron load in liver and heart (HJV−/− mice; 100 mg/kg daily, HJV−/− mice) | pancreas iron (HJV−/− mice; 100 mg/kg daily, HJV−/− mice) | heart iron reduced as compared to the (HJV−/−)-vehicle treated group (HJV−/− mice; [5]) [%] | liver iron reduced as compared to the (HJV−/−)-vehicle treated group (HJV−/− mice; [5]) [%] | liver and heart iron (HJV−/− mice; [6]) | pancreatic iron load (HJV−/− mice; [6]) | half-life [1] [h] | lower exposure in mice [2] | half life within the bloodstream [3] | effectiveness of treatment of iron overload [4]
O=C(O)c1ccc(-n2nc(-c3ccccc3O)nc2-c2ccccc2O)cc1 [Compound I, 4-[3,5-bis(2-hydroxyphenyl)-[1,2,4]triazol-1-yl]benzoic acid] | modest | quite pronounced | clear trend to lower levels | 41 | 63 | significantly reduced | trend to improvement | 8 to 16 | 6-9 times |  | 
CC(=O)N(O)CCCCCNC(=O)CCC(=O)N(O)CCCCCNC(=O)CCC(=O)N(O)CCCCCN [DFO, desferrioxamine] |  |  |  |  |  |  |  |  |  | short | as effective as weekly phlebotomy
